The values below come from ChEMBL document CHEMBL1156251, “Structure--activity relationships of polymyxin antibiotics” (J Med Chem, 2010).

Converted amounts (≈) assume the structure as drawn. Where a SMILES comes first, the peptide text is derived from it. Bridges are numbered along the chain shown (N, C = ends). [ ]: non-standard residue; d: D form. The star is where a group is joined. Octanoyl = CCCCCCCC(=O)*; Dab = NCC[C@H](N)C(=O)O

One data set concerns the target Lipopolysaccharide (LPS). As to the kind of experiment: Displacement of dansyl-PMB from LPS by isothermal titration calorimetry.
In a further data set the test system is Salmonella enterica. Briefly: Antimicrobial activity against Salmonella enterica. The class given is functional.
The subject of data set [1] is Mus musculus. Briefly: Acute toxicity in iv dosed mouse. The class given is organism-based. Particulars: in vivo.
The subject of data set [2] is Escherichia coli. As to the kind of experiment: Antimicrobial activity against Escherichia coli. Type of data set: functional.
Data set [3] deals with Pseudomonas aeruginosa. Briefly: Antimicrobial activity against Pseudomonas aeruginosa. The class given is functional, organism-based.
Data set [4] concerns Escherichia coli. As to the kind of experiment: Antimicrobial activity against Escherichia coli K-12. The class given is functional.
Data set [5] can be described thus: (§1) Toxicity in iv dosed CF1 mouse. Type of data set: organism-based. Particulars: CF1, mouse, in vivo.
Data set [6] concerns Mus musculus. Briefly: Protective activity in sc dosed CF1 mouse. The note with it: in vivo.
The test system of a further data set is Klebsiella pneumoniae. As to the kind of experiment: Antimicrobial activity against Klebsiella pneumoniae. The class given is functional.
Data set [7] in a line: (§2) Toxicity in mouse. The class given is organism-based. Particulars: in vivo.
The test system of data set [8] is Escherichia coli. Briefly: Antimicrobial activity against Escherichia coli assessed as relative sensitizing activity. The class given is functional.
The next data set relates to Staphylococcus aureus. Briefly: Antimicrobial activity against Staphylococcus aureus. The class given is functional.
The species entered for data set [9] is Mus musculus. The description is as §2. Type of data set: organism-based. The note with it: in vivo.
The subject of data set [10] is Mus musculus. Described as §1. The note with it: mouse, in vivo. The class given is organism-based.
Data set [11] concerns Escherichia coli. As to the kind of experiment: Antimicrobial activity against PMB-resistant Escherichia coli SC9253. The class given is functional.
Data set [12] relates to Escherichia coli. Briefly: Antimicrobial activity against PMB-susceptible Escherichia coli SC9251. Type of data set: functional.
For data set [13], the system named is Pseudomonas aeruginosa.

For orientation: IC50 means the concentration at which inhibition is half-maximal. As a reminder, the MIC is the lowest concentration that inhibits growth of the organism. The low end stands for greater potency, the high end for weaker potency. `CC(C)C[C@@H]1NC(=O)[C@@H](Cc2ccccc2)NC(=O)[C@H](CCN)NC(=O)[C@@H](NC(=O)[C@H](CCN)NC(=O)[C@@H](NC(=O)[C@H](CN)NC(=O)O)[C@@H](C)O)CCNC(=O)[C@H]([C@@H](C)O)NC(=O)[C@H](CCN)NC(=O)[C@H](CCN)NC1=O` [DESFA-[DIAMINOPROPANOIC ACID1]POLYMYXIN B] had an IC50 at Lipopolysaccharide (LPS) of 14 µM. Besides, the MIC turned out to be 16 µM (≈ 17.5 µg/mL) against Salmonella enterica, 8 µM against Escherichia coli [2] and 1 µM in the data set with Pseudomonas aeruginosa [3]. Besides, the LD50 in the data set with Mus musculus [1] was found to be 23.5 µM/g.
The compound `CCC(C)CCCCCC(=O)N[C@H](C(=O)N[C@@H](CCN)C(=O)N[C@H]1CCNC(=O)[C@H]([C@@H](C)O)NC(=O)[C@H](CCN)NC(=O)[C@H](CCN)NC(=O)[C@H](CC(C)C)NC(=O)[C@@H](CC(C)C)NC(=O)[C@H](CCN)NC1=O)[C@@H](C)O` (stereo partly specified) had an MIC in the data set with Escherichia coli [4] of 50 µg/mL (≈ 46.2 µM).
As for `CCCCCCCC(=O)N[C@@H](CCN)C(=O)N[C@H](C(=O)N[C@@H](CCN)C(=O)N[C@H]1CCNC(=O)[C@H]([C@@H](C)O)NC(=O)[C@H](CCNC(=O)[C@@H](N)CCCNC(=N)N)NC(=O)[C@H](CCN)NC(=O)[C@H](CC(C)C)NC(=O)[C@@H](Cc2ccccc2)NC(=O)[C@H](CCN)NC1=O)[C@@H](C)O` (Octanoyl-[Dab]T[Dab][Dab][Dab][dF]L[Dab][Dab](Arg)T; lactam 4-C), the LD50 in data set [5] came to 15 mg/kg. The compound also had a PD50 in the data set on Mus musculus [6] of 0.25 mg/kg. Further, the MIC with Klebsiella pneumoniae came to 2 µg/mL (≈ 1.49 µM); against Escherichia coli [2], 0.16 µg/mL; against Pseudomonas aeruginosa [3], 0.03 µg/mL.
As for `CCCCCCCCCCCC(=O)N[C@H](C(=O)N[C@@H](CCN)C(=O)N[C@H]1CCNC(=O)[C@H]([C@@H](C)O)NC(=O)[C@H](CCN)NC(=O)[C@H](CCN)NC(=O)[C@H](CC(C)C)NC(=O)[C@@H](CC(C)C)NC(=O)[C@H](CCN)NC1=O)[C@@H](C)O`, in the data set with Escherichia coli [4], the MIC was 3 µg/mL (≈ 2.7 µM).
`CC(C)C[C@@H]1NC(=O)[C@@H](Cc2ccccc2)NC(=O)[C@H](CCN)NC(=O)[C@@H](NC(=O)[C@H](CCN)NC(=O)[C@@H](N)[C@@H](C)O)CCNC(=O)[C@H]([C@@H](C)O)NC(=O)[C@H](CCN)NC(=O)[C@H](CCN)NC1=O` (stereo in doubt; 193) [POLYMYXIN B NONAPEPTIDE] returned an LD50 in data set [7] of 43 mg/kg. Further, the IC50 on Lipopolysaccharide (LPS) (read-out: IC50) worked out at 2.5 µM. Also, in the data set with Escherichia coli [8], the Activity was found to be 100%.
With `CCCCCCCCCC(=O)N[C@H](C(=O)N[C@@H](CCN)C(=O)N[C@H]1CCNC(=O)[C@H]([C@@H](C)O)NC(=O)[C@H](CCN)NC(=O)[C@H](CCN)NC(=O)[C@H](CC(C)C)NC(=O)[C@@H](Cc2ccccc2)NC(=O)[C@H](CCN)NC1=O)[C@@H](C)O` [DECANOYL POLYMIXIN B NONAPEPTIDE], the figures for the MIC in the data set with Staphylococcus aureus, in the data set with Escherichia coli [2] and in the data set with Pseudomonas aeruginosa [3] were not below 16 µg/mL, 1 µg/mL and 2 µg/mL, respectively.
Take `CC(C)C[C@@H]1NC(=O)[C@@H](Cc2ccccc2)NC(=O)[C@H](CCN)NC(=O)[C@@H](NC(=O)[C@H](CCN)NC(=O)[C@@H](NC(=O)[C@H](Cc2c[nH]c3ccccc23)NC(=O)O)[C@@H](C)O)CCNC(=O)[C@H]([C@@H](C)O)NC(=O)[C@H](CCN)NC(=O)[C@H](CCN)NC1=O` [DESFA-[TRP1]POLYMYXIN B]: the IC50 on Lipopolysaccharide (LPS) was determined as 20 µM. The MIC is 8 µM (≈ 9.55 µg/mL) in the data set with Salmonella enterica, 8 µM against Escherichia coli [2] and 8 µM in the data set with Pseudomonas aeruginosa [3]. The LD50 with Mus musculus [1] worked out at 19 µM/g.
Turning to `CCCCCCCCCCCCCC(=O)N[C@H](C(=O)N[C@@H](CCN)C(=O)N[C@H]1CCNC(=O)[C@H]([C@@H](C)O)NC(=O)[C@H](CCN)NC(=O)[C@H](CCN)NC(=O)[C@H](CC(C)C)NC(=O)[C@@H](CC(C)C)NC(=O)[C@H](CCN)NC1=O)[C@@H](C)O`, the MIC amounted to 12 µg/mL (≈ 10.5 µM) against Escherichia coli [4], 2 µM (≈ 2.28 µg/mL) in the data set with Salmonella enterica, 4 µM against Escherichia coli [2] and 4 µM against Pseudomonas aeruginosa [3].
In the data set with Escherichia coli [4], `CCCCCCCCCCC(=O)N[C@H](C(=O)N[C@@H](CCN)C(=O)N[C@H]1CCNC(=O)[C@H]([C@@H](C)O)NC(=O)[C@H](CCN)NC(=O)[C@H](CCN)NC(=O)[C@H](CC(C)C)NC(=O)[C@@H](CC(C)C)NC(=O)[C@H](CCN)NC1=O)[C@@H](C)O` came in with an MIC of 3 µg/mL (≈ 2.73 µM).
In the case of `CCCCCCCCC(=O)N[C@H](C(=O)N[C@@H](CCN)C(=O)N[C@H]1CCNC(=O)[C@H]([C@@H](C)O)NC(=O)[C@H](CCN)NC(=O)[C@H](CCN)NC(=O)[C@H](CC(C)C)NC(=O)[C@@H](Cc2ccccc2)NC(=O)[C@H](CCN)NC1=O)[C@@H](C)O`, the results for the MIC against Staphylococcus aureus, against Escherichia coli [2] and against Pseudomonas aeruginosa [3] were not below 16 µg/mL, 0.5 µg/mL and 2 µg/mL, respectively.
Take POLYMYXIN B [listing 1 of 2 here]: the values for the LD50 in the data set filed under Mus musculus [9], with Mus musculus [10] and in the data set on Mus musculus [1] were 9 mg/kg, 9 mg/kg and 4.8 µM/g, respectively. For the same compound, the IC50 on Lipopolysaccharide (LPS) was determined as 4 µM.
Consider `CC(C)CCCCCC(O)CC(=O)N[C@@H](CCN)C(=O)N[C@H]1CCNC(=O)[C@H](CC(C)C)NC(=O)[C@H](CCN)NC(=O)[C@H](CCN)NC(=O)[C@H](CC(C)C)NC(=O)[C@@H](Cc2ccccc2)NC(=O)[C@H](CCN)NC1=O` (stereo partly specified) [OCTAPEPTIN A1], for which the MIC amounted to 0.3 µg/mL (≈ 0.283 µM) in the data set on Escherichia coli [11] and 1.7 µg/mL (≈ 1.61 µM) against Escherichia coli [12].
Regarding `CCCCCCCCCC(=O)N[C@H](C(=O)N[C@@H](CCN)C(=O)N[C@H]1CCNC(=O)[C@H]([C@@H](C)O)NC(=O)[C@H](CCN)NC(=O)[C@H](CCN)NC(=O)[C@H](CC(C)C)NC(=O)[C@@H](CC(C)C)NC(=O)[C@H](CCN)NC1=O)[C@@H](C)O`, inhibition of growth with Escherichia coli [4] (MIC) required 3 µg/mL (≈ 2.77 µM).
With POLYMYXIN B [listing 2 of 2 here], the MIC against Salmonella enterica, in the data set with Pseudomonas aeruginosa [13] and against Escherichia coli [2] was 1 µM in each case.
Consider `CCCCCCCCC(=O)N[C@H](C(=O)N[C@@H](CCN)C(=O)N[C@H]1CCNC(=O)[C@H]([C@@H](C)O)NC(=O)[C@H](CCN)NC(=O)[C@H](CCN)NC(=O)[C@H](CC(C)C)NC(=O)[C@@H](CC(C)C)NC(=O)[C@H](CCN)NC1=O)[C@@H](C)O`, for which, in the data set with Escherichia coli [4], the MIC was found to be 12 µg/mL (≈ 11.2 µM).
Consider `CCCCCCCC(=O)N[C@H](C(=O)N[C@@H](CCN)C(=O)N[C@H]1CCNC(=O)[C@H]([C@@H](C)O)NC(=O)[C@H](CCN)NC(=O)[C@H](CCN)NC(=O)[C@H](CC(C)C)NC(=O)[C@@H](Cc2ccccc2)NC(=O)[C@H](CCN)NC1=O)[C@@H](C)O` (stereo in doubt; 80) [Octanoyl Polymixin B nonapeptide], for which the figures for the MIC with Staphylococcus aureus, in the data set with Escherichia coli [2] and against Pseudomonas aeruginosa [3] were not below 16 µg/mL, 0.03 µg/mL and 4 µg/mL, respectively.
In the data set with Escherichia coli [4], `CCC(C)CCCCCCC(=O)N[C@H](C(=O)N[C@@H](CCN)C(=O)N[C@H]1CCNC(=O)[C@H]([C@@H](C)O)NC(=O)[C@H](CCN)NC(=O)[C@H](CCN)NC(=O)[C@H](CC(C)C)NC(=O)[C@@H](CC(C)C)NC(=O)[C@H](CCN)NC1=O)[C@@H](C)O` (stereo partly specified) displayed an MIC of 25 µg/mL (≈ 22.8 µM).
